Assays:
[1] = tested on: normal human epidermal cells; assay: Evaluation for glutathione production promoting activity (total glutathione amount, glutathione reductase recycling assay); assay type: cell-based; conditions: for GSH (pmol/μg-protein) Mean ± S.D.: 24-hour cultivation, n=4; for glutathione production promoting activities compared with Nahlsgen: summary of Tables 5-1 and 5-2
Procedure: D-2-Amino-8-phosphonooctanoic acid monohydrate obtained in Example 8, which was used as a sample, was evaluated for glutathione production promoting activity by the following method (n=4).
Specifically, normal human epidermal cells were seeded in a 96-well microplate at a density of 2.0×10^4 cells per 96 wells, using a normal human epidermal keratinocyte growth medium HuMedia KG2 (trade name, supplied by Kurabo Industries Ltd.).
After 24 hours from the seeding, the medium was exchanged with a normal human epidermal keratinocyte growth medium HuMedia KB2 (trade name, supplied by Kurabo Industries Ltd.) containing the sample in a predetermined concentration, and the cultivation was continued. As a blank, the cells were cultured by a procedure similar to above, except for not using the sample.
After 24-hour cultivation, the cells were disrupted by ultrasonication using a phosphate buffer containing 100 μM phenylmethylsulfonyl fluoride, and the total glutathione amount was determined by glutathione reductase recycling assay.
Specifically, a suspension of the disrupted cells were mixed with reduced nicotinamide adenine dinucleotide phosphate and glutathione reductase, followed by reaction at 37° C. for 10 minutes.
Next, 0.1 M phosphate buffer (containing 0.5 M EDTA, pH 7.5) containing dissolved 10 mM 5,5′-dithiobis(2-nitrobenzoic acid) was added, and the mixture was incubated for 30 minutes. The absorbance at 450 nm was measured immediately after addition, and after incubation for 30 minutes. The difference in absorbance, which is calculated by subtracting the absorbance immediately after addition from the absorbance after 30-minute incubation, was defined as an index for glutathione synthesis quantity.
The total glutathione amount in the disrupted cell suspension was determined on the basis of a calibration curve plotted using oxidized glutathione. The protein content in the disrupted cell suspension was determined using the Pierce Microplate BCA Protein Assay Kit (Thermo SCIENTIFIC). The glutathione synthesis quantity was evaluated for differences from the untreated specimen (blank) and from the positive object by a significant difference test using Student's t-test. The results of the tests, each of which was performed two times, are given in Tables 4-1 (first test) and 4-2 (second test).
Tests were performed (n=4) to determine glutathione production promoting activity by a procedure similar to above, except for using, as a sample instead of D-2-amino-8-phosphonooctanoic acid monohydrate, D-2-amino-4-phosphonobutanoic acid L-Arg salt obtained in Example 2, or D-2-amino-4-phosphonobutanoic acid D-Arg salt monohydrate obtained in Example 3.
A test as a referential example was also performed by a procedure similar to above, except for using Nahlsgen (generic name: DL-2-amino-4-[(RSp)-(3-carboxymethylphenoxy) (methoxy)phosphoryl]butanoic acid), instead of the sample.

[2] = room temperature; amorphous powdery solid obtained through lyophilization; cited from earlier work
[3] = target: gamma-glutamyl transpeptidase (GGT) (Homo sapiens, UniProt P19440); conditions: known from Patent Literature (PTL) 1; cited from earlier work
[4] = Table 5-1, first test, 2.00 μmol/L
[5] = Table 5-1, first test, 10.00 μmol/L
[6] = Table 5-1, first test, 50.00 μmol/L
[7] = Table 5-1, first test, 250.00 μmol/L
[8] = Table 5-2, second test, 2.00 μmol/L
[9] = Table 5-2, second test, 10.00 μmol/L
[10] = Table 5-2, second test, 50.00 μmol/L
[11] = Table 5-2, second test, 250.00 μmol/L

Sequence of gamma-glutamyl transpeptidase (GGT) (P19440 whole entry, species assumed): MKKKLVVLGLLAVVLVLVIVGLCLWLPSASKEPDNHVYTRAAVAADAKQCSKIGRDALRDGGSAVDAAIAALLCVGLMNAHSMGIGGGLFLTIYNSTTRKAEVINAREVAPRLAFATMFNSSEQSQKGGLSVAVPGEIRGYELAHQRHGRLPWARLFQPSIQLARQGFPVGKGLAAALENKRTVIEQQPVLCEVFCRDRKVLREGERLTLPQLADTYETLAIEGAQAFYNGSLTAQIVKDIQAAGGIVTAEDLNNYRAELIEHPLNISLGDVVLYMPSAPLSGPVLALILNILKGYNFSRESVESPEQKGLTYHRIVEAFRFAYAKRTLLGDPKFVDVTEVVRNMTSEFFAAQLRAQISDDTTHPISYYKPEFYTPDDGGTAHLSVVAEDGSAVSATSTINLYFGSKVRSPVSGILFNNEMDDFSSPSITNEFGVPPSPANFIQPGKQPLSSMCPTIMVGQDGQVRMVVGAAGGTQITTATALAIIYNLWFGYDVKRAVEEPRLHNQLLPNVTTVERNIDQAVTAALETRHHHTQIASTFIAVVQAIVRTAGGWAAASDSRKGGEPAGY

SMILES	melting point [°C]	GSH (pmol/μg-protein) Mean ± S.D. [1, 4] [pmol/μg-protein]	GSH (pmol/μg-protein) Mean ± S.D. [1, 5] [pmol/μg-protein]	GSH (pmol/μg-protein) Mean ± S.D. [1, 6] [pmol/μg-protein]	GSH (pmol/μg-protein) Mean ± S.D. [1, 7] [pmol/μg-protein]	GSH (pmol/μg-protein) Mean ± S.D. [1, 8] [pmol/μg-protein]	GSH (pmol/μg-protein) Mean ± S.D. [1, 9] [pmol/μg-protein]	GSH (pmol/μg-protein) Mean ± S.D. [1, 10] [pmol/μg-protein]	GSH (pmol/μg-protein) Mean ± S.D. [1, 11] [pmol/μg-protein]	glutathione production promoting activities compared with Nahlsgen [1]	also measured
N[C@@H](CCCCCCP(=O)(O)O)C(=O)O.O (hydrate or solvate)	73										
N=C(N)NCCC[C@H](N)C(=O)O.N[C@H](CCP(=O)(O)O)C(=O)O [D-2-amino-4-phosphonobutanoic acid L-Arg salt]		49.2 ± 7.5	51.0 ± 1.6	43.9 ± 9.3	42.9 ± 9.8	37.6 ± 2.2	35.4 ± 2.1	37.2 ± 3.0	36.3 ± 1.5	significant glutathione production promoting activities comparable to or higher than those of Nahlsgen	
COP(=O)(CCC(N)C(=O)O)Oc1cccc(CC(=O)O)c1 (racemic) [Nahlsgen, DL-2-amino-4-[(RSp)-(3-carboxymethylphenoxy)(methoxy)phosphoryl]butanoic acid, reference compound]			44.7 ± 2.7				36.2 ± 3.4	36.5 ± 3.9			deliquescency / decomposition on storage [2]: deliquescent and is liable to decompose at room temperature; GGT inhibitor activity [3]: excellent gamma-glutamyl transpeptidase (GGT) inhibitor
N[C@H](CCCCCCP(=O)(O)O)C(=O)O.O (hydrate or solvate) [D-2-amino-8-phosphonooctanoic acid monohydrate]	75.3										
N=C(N)NCCC[C@@H](N)C(=O)O.N[C@H](CCP(=O)(O)O)C(=O)O.O [D-2-amino-4-phosphonobutanoic acid D-Arg salt monohydrate]		38.6 ± 3.1	46.2 ± 1.8	36.3 ± 4.0	40.9 ± 8.1	35.8 ± 1.1	35.8 ± 1.2	37.3 ± 1.9	37.1 ± 1.7	significant glutathione production promoting activities comparable to or higher than those of Nahlsgen	
N[C@H](CCCCCCP(=O)(O)O)C(=O)O.O [D-2-amino-8-phosphonooctanoic acid monohydrate]											GSH (pmol/μg-protein) Mean ± S.D. ([1]; Table 4-1, first test, 2.00 μmol/L): 59.5 ± 2.0 pmol/μg-protein; GSH (pmol/μg-protein) Mean ± S.D. ([1]; Table 4-1, first test, 10.00 μmol/L): 60.6 ± 2.3 pmol/μg-protein; GSH (pmol/μg-protein) Mean ± S.D. ([1]; Table 4-1, first test, 50.00 μmol/L): 59.7 ± 8.5 pmol/μg-protein; GSH (pmol/μg-protein) Mean ± S.D. ([1]; Table 4-1, first test, 250.00 μmol/L): 61.0 ± 3.0 pmol/μg-protein; GSH (pmol/μg-protein) Mean ± S.D. ([1]; Table 4-2, second test, 2.00 μmol/L): 35.3 ± 1.7 pmol/μg-protein; GSH (pmol/μg-protein) Mean ± S.D. ([1]; Table 4-2, second test, 10.00 μmol/L): 34.8 ± 1.9 pmol/μg-protein; GSH (pmol/μg-protein) Mean ± S.D. ([1]; Table 4-2, second test, 50.00 μmol/L): 34.8 ± 2.6 pmol/μg-protein; GSH (pmol/μg-protein) Mean ± S.D. ([1]; Table 4-2, second test, 250.00 μmol/L): 33.6 ± 2.3 pmol/μg-protein; glutathione production promoting activity as compared with the blank ([1]; summary of Tables 4-1 and 4-2, versus untreated specimen): significant glutathione production promoting activity
